US20160108049A1 (TAKEDA Gmbh, priority 2011, published 2016)

Tests used:
PDE4B1 = target: T1, PDE4B1 (Homo sapiens, UniProt Q07343); experiment: Inhibition of PDE4 activity (PDE4B1, SPA assay); assay type: biochemical; details: recombinant PDE4B1, 0.5 μM cAMP; read-out: PDE4B1 Inhibitory values measured as -logIC50 (converted)
T1 construct: made in house; host or cells: SF21 insect cells (baculovirus; virus made in SF9 cells, pCR-Bac vector)
Method: Method for Measuring Inhibition of PDE4 Activity
The PDE4B1 (GB no. L20966) was a gift of Prof. M. Conti (Stanford University, USA). It was amplified from the original plasmid (pCMV5) via PCR with primers Rb18 (5′-[…]-3′) and Rb10 (5′-[…]-3′) and cloned into the pCR-Bac vector (Invitrogen, Groningen, NL).
The recombinant baculovirus was prepared by means of homologous recombination in SF9 insect cells. The expression plasmids were cotransfected with Baculo-Gold DNA (Pharmingen, Hamburg) using a standard protocol (Pharmingen, Hamburg). Wt virus-free recombinant virus supernatants were selected using plaque assay methods. After that, high-titre virus supernatants were prepared by amplifying 3 times. PDE4B1 was expressed in SF21 cells by infecting 2×10^6 cells/ml with an MOI (multiplicity of infection) between 1 and 10 in the serum-free SF900 medium (GIBCO Life Technologies, Karlsruhe, Germany) The cells were cultured at 28° C. for 48-72 hours, after which they were pelleted for 5-10 min at 1000×g and 4° C.
The SF21 insect cells were resuspended, at a concentration of approx. 10^7 cells/ml, in ice-cold (4° C.) homogenization buffer (20 mM Tris, pH 8.2, containing the following additions: 140 mM NaCl, 3.8 mM KCl, 1 mM EGTA, 1 mM MgCl2, 10 mM β-mercaptoethanol, 2 mM benzamidine, 0.4 mM Pefablock, 10 μM leupeptin, 10 μM pepstatin A, 5 μM trypsin inhibitor) and disrupted by ultrasonication. The homogenate was then centrifuged for 10 min at 1000×g and the supernatant was stored at −80° C. until subsequent use (see below). The protein content was determined by the Bradford method (BioRad, Munich) using BSA (Bovine serum albumin) as the standard.
PDE4B1 activities were measured in a 96-well platform using SPA (scintillation proximity assay) yttrium silicate beads (RPNQ1050 from GE Healthcare). In a first step the PDE activity operated hydrolysis of either [^3H] cAMP (substrate) into […]. In a second step substrate and product were distinguished following addition of SPA yttrium silicate beads. […] Close proximity of bound [^3H] […] The test volume was 100 μl and finally contained 20 mM Tris buffer (pH 7.4), 0.1 mg/ml of BSA, 5 mM Mg^2+, 0.5 μM cAMP (including about 50,000 cpm of [3H]cAMP) as substrate, 1 μl of the respective substance dilution in DMSO and sufficient recombinant PDE (1000×g supernatant, see above) to ensure that 10-20% of the cAMP was converted under the said experimental conditions. […] After a preincubation of 5 min at 37° C., the reaction was commenced by adding the substrate (cAMP) and the assays were incubated for a further 15 min. Reactions were terminated by adding SPA beads (50 μl). In agreement with the manufacturer's instructions, the SPA beads had previously been resuspended in water, but were then diluted 1:3 (v/v) in water. This diluted solution further contained 3 mM IBMX (isobutylmethylxanthine) to ensure a complete block of PDE activity. Once the beads were sedimented (>30 min), the MTP's (micro titerplate) were analyzed in commercially available […]. The corresponding IC50 values of the compounds for inhibition of PDE4B1 activity were determined from the concentration-effect curves by means of non-linear regression.
(§1) The numbers of the compounds correspond to the numbers of the examples.

human PDE5 = target: T2, human PDE5 (Homo sapiens, UniProt O76074); experiment: Inhibition of PDE5 activity (platelet lysate, SPA assay); assay type: biochemical; details: 0.5 μM cGMP, read-out: PDE5 Inhibitory values measured as -logIC50 (converted)
T2 construct: from tissue; host or cells: human platelets from fresh donor blood (platelet lysate)
Method: Method for Measuring Inhibition of PDE5 Activity
As a source for human PDE5, platelets were used. For that purpose, 150 ml fresh blood from human donors anticoagulated with citrate [final concentration 0.3% (w/v)] was centrifuged at 200 g for 10 min to obtain the so-called platelet-rich-plasma (PRP) as a supernatant. […] After centrifugation (1,400 g, 10 min) the cell pellet was resuspended in 3 ml homogenization buffer (NaCl 140 mM, KCl 3.8 mM, EGTA (ethylene glycol tetraacetic acid) 1 mM, MgCl2 1 mM, Tris-HCl 20 mM, beta-mercaptoethanol 1 mM, pH 8.2) plus protease-inhibitor mix resulting in final concentrations of 0.5 mM Pefablock (Roche), 10 μM Leupeptin, 5 μM Trypsine inhibitor, 2 mM Benzamidin and 10 μM Pepstatin A. The suspension was sonicated and thereafter centrifuged for 15 min at 10,000 g. The resulting supernatant (platelet lysate) was used for enzymatic assays.
PDE5 activities were measured in a 96-well platform using SPA (scintillation proximity assay) yttrium silicate beads (RPNQ1050 from GE Healthcare). In a first step the PDE activity operated hydrolysis of either [^3H] cGMP (substrate) into [^3H] 5′GMP. In a second step substrate and product were distinguished following addition of SPA yttrium silicate beads. Indeed, in the presence of zinc sulphate the linear [^3H] […] Close proximity of bound [^3H] […] The test volume was 100 μl and contained 20 mM Tris buffer (pH 7.4), 0.1 mg of BSA (bovine serum albumin)/ml, 5 mM Mg^2+, 1 μM motapizone (PDE3 Inhibitor), 10 nM PDE2 inhibitor 2-(3,4-dimethoxybenzyl)-7-[(1R,2R)-2-hydroxy-1-(2-phenylethyl)propyl]-5-methylimidazo[5,1-f][1,2,4]triazin-4(3H)-one, 0.5 μM cGMP (cyclic guanosine monophosphate) (including about 50,000 cpm of [3H]cGMP as a tracer) (substrate), 1 μl of the respective compound dilution in dimethylsulfoxide (DMSO) and sufficient PDE5-containing platelet lysat (10,000×g supernatant, see above) to ensure that 10-20% of the cGMP was converted under the said experimental conditions. […] After a preincubation of 5 min at 37° C., the reaction was commenced by adding the substrate (cGMP) and the assay was incubated for a further 15 min. The reaction was terminated by adding SPA beads (50 μl). In agreement with the manufacturer's instructions, the SPA beads had previously been resuspended in water, but were then diluted 1:3 (v/v) in water. This diluted solution also contained 3 mM 8-methoxymethyl-3-isobutyl-1-methylxanthine (IBMX) to ensure a complete block of PDE activity. Once the beads were sedimented (>30 min), the MTP's were analyzed in commercially available luminescence detection devices. The corresponding IC50 values of the compounds for inhibition of PDE activity were determined from the concentration-effect curves by means of non-linear regression.
as §1

T1 sequence (Q07343 whole entry): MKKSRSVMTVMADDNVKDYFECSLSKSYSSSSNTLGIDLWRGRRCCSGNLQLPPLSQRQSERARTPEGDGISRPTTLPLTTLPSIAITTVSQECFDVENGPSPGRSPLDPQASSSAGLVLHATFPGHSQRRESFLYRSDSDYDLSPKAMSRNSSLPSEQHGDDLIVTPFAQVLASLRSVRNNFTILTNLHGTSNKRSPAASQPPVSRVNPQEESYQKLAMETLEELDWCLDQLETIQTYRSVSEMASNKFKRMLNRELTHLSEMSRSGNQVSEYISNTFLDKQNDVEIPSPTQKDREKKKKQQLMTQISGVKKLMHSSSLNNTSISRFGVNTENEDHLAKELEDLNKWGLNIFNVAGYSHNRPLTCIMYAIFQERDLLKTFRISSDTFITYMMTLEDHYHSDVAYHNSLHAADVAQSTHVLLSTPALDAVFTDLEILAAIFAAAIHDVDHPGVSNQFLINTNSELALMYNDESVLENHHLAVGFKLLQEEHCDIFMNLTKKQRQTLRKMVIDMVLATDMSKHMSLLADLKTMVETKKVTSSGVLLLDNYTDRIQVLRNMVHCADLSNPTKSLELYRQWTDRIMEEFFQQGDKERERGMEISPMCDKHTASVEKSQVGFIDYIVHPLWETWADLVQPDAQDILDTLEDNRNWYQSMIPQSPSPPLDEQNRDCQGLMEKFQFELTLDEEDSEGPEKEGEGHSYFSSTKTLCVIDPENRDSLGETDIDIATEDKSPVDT

**Q.** What does the source list for `COc1ccc(C2=NN(C3CCN(C(=O)[C@H](CO)NC(=O)c4c[nH]c5c(-c6c(OCC7CC7)ccc7c6OCO7)ncnc45)CC3)C(=O)[C@@H]3CCCC[C@H]23)cc1OC` [Example 60, 4-[5-(cyclopropylmethoxy)-1,3-benzodioxol-4-yl]-N-[(2S)-1-{4-[(4aS,8aR)-4-(3,4-dimethoxyphenyl)-1-oxo-4a,5,6,7,8,8a-hexahydrophthalazin-2(1H)-yl]piperidin-1-yl}-3-hydroxy-1-oxopropan-2-yl]-5H-pyrrolo[3,2-d]pyrimidine-7-carboxamide]?
**A.** IC50 (PDE4B1): < 1 nM; IC50 (human PDE5): 1 to 10 nM

**Q.** `COc1ccc(C2=NN(C3CCN(C(=O)[C@H](NC(=O)c4c[nH]c5c(-c6c(OCC7CC7)ccc7c6OCO7)ncnc45)[C@H](C)c4ccccc4)CC3)C(=O)[C@@H]3CCCC[C@H]23)cc1OC` [Example 50, 4-[5-(cyclopropylmethoxy)-1,3-benzodioxol-4-yl]-N-[(2R,3R)-1-{4-[(4aS,8aR)-4-(3,4-dimethoxyphenyl)-1-oxo-4a,5,6,7,8,8a-hexahydrophthalazin-2(1H)-yl]piperidin-1-yl}-1-oxo-3-phenylbutan-2-yl]-5H-pyrrolo[3,2-d]pyrimidine-7-carboxamide] was tested. Which IC50 (PDE4B1) did it give?
**A.** < 1 nM

**Q.** And the IC50 (human PDE5)?
**A.** 1 to 10 nM

**Q.** With `COc1ccc(C2=NN(C3CCN(C(=O)[C@@H](Cc4cscn4)NC(=O)c4c[nH]c5c(-c6c(OCC7CC7)ccc7c6OCO7)ncnc45)CC3)C(=O)[C@@H]3CCCC[C@H]23)cc1OC` [Example 85, 4-[5-(cyclopropylmethoxy)-1,3-benzodioxol-4-yl]-N-[(2R)-1-{4-[(4aS,8aR)-4-(3,4-dimethoxyphenyl)-1-oxo-4a,5,6,7,8,8a-hexahydrophthalazin-2(1H)-yl]piperidin-1-yl}-1-oxo-3-(1,3-thiazol-4-yl)propan-2-yl]-5H-pyrrolo[3,2-d]pyrimidine-7-carboxamide] as the compound, how does the IC50 (PDE4B1) read?
**A.** < 1 nM

**Q.** And the IC50 (human PDE5)?
**A.** < 1 nM

**Q.** How did the IC50 (PDE4B1) turn out when `COc1ccc(C2=NN(C3CCN(C(=O)[C@@H](Cc4ccccc4)NC(=O)c4c(C)[nH]c5c(-c6c(OCC7CC7)ccc7c6OCO7)ncnc45)CC3)C(=O)C(C)(C)C2)cc1OC` [Example 66, 4-[5-(cyclopropylmethoxy)-1,3-benzodioxol-4-yl]-N-[(2R)-1-{4-[3-(3,4-dimethoxyphenyl)-5,5-dimethyl-6-oxo-5,6-dihydropyridazin-1(4H)-yl]piperidin-1-yl}-1-oxo-3-phenylpropan-2-yl]-6-methyl-5H-pyrrolo[3,2-d]pyrimidine-7-carboxamide] was run?
**A.** < 1 nM

**Q.** And the IC50 (human PDE5)?
**A.** < 1 nM

**Q.** Which results are given for `COc1ccc(C2=NN(C3CCN(C(=O)CCNC(=O)c4c[nH]c5c(-c6c(OCC7CC7)ccc7c6OCO7)ncnc45)CC3)C(=O)[C@@H]3CCCC[C@H]23)cc1OC` [Example 76, 4-[5-(cyclopropylmethoxy)-1,3-benzodioxol-4-yl]-N-(3-{4-[(4aS,8aR)-4-(3,4-dimethoxyphenyl)-1-oxo-4a,5,6,7,8,8a-hexahydrophthalazin-2(1H)-yl]piperidin-1-yl}-3-oxopropyl)-5H-pyrrolo[3,2-d]pyrimidine-7-carboxamide]?
**A.** IC50 (PDE4B1): 1 to 10 nM; IC50 (human PDE5): 1 to 10 nM

**Q.** How did the IC50 (human PDE5) turn out when `COc1ccc(C2=NN(C3CCN(C(=O)[C@H](Cc4cscn4)NC(=O)c4c(C)[nH]c5c(-c6c(OCC7CC7)ccc7c6OCO7)ncnc45)CC3)C(=O)[C@@H]3CCCC[C@H]23)cc1OC` [Example 87, 4-[5-(cyclopropylmethoxy)-1,3-benzodioxol-4-yl]-N-[(2S)-1-{4-[(4aS,8aR)-4-(3,4-dimethoxyphenyl)-1-oxo-4a,5,6,7,8,8a-hexahydrophthalazin-2(1H)-yl]piperidin-1-yl}-1-oxo-3-(1,3-thiazol-4-yl)propan-2-yl]-6-methyl-5H-pyrrolo[3,2-d]pyrimidine-7-carboxamide] was run?
**A.** < 1 nM
